Results as given in PMC6409085, “Three odorant-binding proteins are involved in the behavioral response of Sogatella furcifera to rice plant volatiles” (PeerJ, 2019).
Values joined by “and” are separate entries in the source; they are usually repeats but may differ in a detail not shown here. Identical values can stand only once.

Experiments:
Assay in all cases: biochemical
Format in all cases: binding
[1] = target: SfurOBP2 (Sogatella furcifera, UniProt V5T759)
In short: (§1)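 Fluorescence competitive binding used 2.0 µM SfurOBP and 2.0 µM 1-NPN reporter in 50 mM Tris-HCl, pH 7.4, with odorants at 2-20 µM. Fluorescence was read 2 min after adding the odorant (excitation 337 nm, emission 390-490 nm), in triplicate. Ki was calculated from IC50 as IC50/(1 + [1-NPN]/K1-NPN).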

[2] = target: SfurOBP3 (Sogatella furcifera, UniProt V5T818); conditions: for Fluorescence competitive binding assay, fluorescence intensity: OBP3, three replicate columns
In short: as §1

[3] = target: SfurOBP11 (Sogatella furcifera, UniProt V5T6E3)
In short: as §1

[4] = target: SfurOBP1 (Sogatella furcifera, UniProt V5T8N5); conditions: for Fluorescence competitive binding assay, fluorescence intensity: OBP1, three replicate columns
In short: as §1

Chain of SfurOBP3 (V5T818 entry or part of it): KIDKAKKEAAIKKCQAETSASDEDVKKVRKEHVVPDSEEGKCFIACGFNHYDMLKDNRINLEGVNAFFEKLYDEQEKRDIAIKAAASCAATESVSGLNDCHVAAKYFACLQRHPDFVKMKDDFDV
Chain of SfurOBP1 (V5T8N5 entry or part of it): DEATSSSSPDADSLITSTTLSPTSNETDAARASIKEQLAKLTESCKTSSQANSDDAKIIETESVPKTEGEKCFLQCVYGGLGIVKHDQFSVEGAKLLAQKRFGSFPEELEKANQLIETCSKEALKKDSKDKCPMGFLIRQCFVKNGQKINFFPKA
Chain of SfurOBP11 (V5T6E3 entry or part of it): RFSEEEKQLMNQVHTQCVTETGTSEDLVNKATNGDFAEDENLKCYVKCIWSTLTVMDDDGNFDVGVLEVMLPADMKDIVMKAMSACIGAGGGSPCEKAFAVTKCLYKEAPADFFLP
Chain of SfurOBP2 (V5T759 entry or part of it): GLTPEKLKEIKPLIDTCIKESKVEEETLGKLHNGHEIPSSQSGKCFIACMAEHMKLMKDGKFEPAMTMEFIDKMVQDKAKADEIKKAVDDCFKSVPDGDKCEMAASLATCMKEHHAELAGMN

## CCCCCCCCCCCCO [lauryl alcohol]
[1]; SfurOBP2, protein and 1-NPN both 2.0 µM, competitor 2-20 µM, read-out: IC50
  IC50: > 20 µM
[1]; ligand concentration 2 (unit not given), replicate column 1 of 3
  Fluorescence competitive binding assay, OBP2 (raw fluorescence reading): 17977
[1]; ligand concentration 2 (unit not given), replicate column 2 of 3
  Fluorescence competitive binding assay, OBP2 (raw fluorescence reading): 18256
[1]; ligand concentration 2 (unit not given), replicate column 3 of 3
  Fluorescence competitive binding assay, OBP2 (raw fluorescence reading): 18222
[1]; ligand concentration 4 (unit not given), replicate column 1 of 3
  Fluorescence competitive binding assay, OBP2 (raw fluorescence reading): 21586
[1]; ligand concentration 4 (unit not given), replicate column 2 of 3
  Fluorescence competitive binding assay, OBP2 (raw fluorescence reading): 19639
[1]; ligand concentration 4 (unit not given), replicate column 3 of 3
  Fluorescence competitive binding assay, OBP2 (raw fluorescence reading): 16260
[1]; ligand concentration 6 (unit not given), replicate column 1 of 3
  Fluorescence competitive binding assay, OBP2 (raw fluorescence reading): 18208
[1]; ligand concentration 6 (unit not given), replicate column 2 of 3
  Fluorescence competitive binding assay, OBP2 (raw fluorescence reading): 18064
[1]; ligand concentration 6 (unit not given), replicate column 3 of 3
  Fluorescence competitive binding assay, OBP2 (raw fluorescence reading): 15812
[1]; ligand concentration 8 (unit not given), replicate column 1 of 3
  Fluorescence competitive binding assay, OBP2 (raw fluorescence reading): 16946
[1]; ligand concentration 8 (unit not given), replicate column 2 of 3
  Fluorescence competitive binding assay, OBP2 (raw fluorescence reading): 12445
[1]; ligand concentration 8 (unit not given), replicate column 3 of 3
  Fluorescence competitive binding assay, OBP2 (raw fluorescence reading): 14953
[1]; ligand concentration 10 (unit not given), replicate column 1 of 3
  Fluorescence competitive binding assay, OBP2 (raw fluorescence reading): 16387
[1]; ligand concentration 10 (unit not given), replicate column 2 of 3
  Fluorescence competitive binding assay, OBP2 (raw fluorescence reading): 15939
[1]; ligand concentration 10 (unit not given), replicate column 3 of 3
  Fluorescence competitive binding assay, OBP2 (raw fluorescence reading): 15218
[1]; ligand concentration 12 (unit not given), replicate column 1 of 3
  Fluorescence competitive binding assay, OBP2 (raw fluorescence reading): 16171
[1]; ligand concentration 12 (unit not given), replicate column 2 of 3
  Fluorescence competitive binding assay, OBP2 (raw fluorescence reading): 15043
[1]; ligand concentration 12 (unit not given), replicate column 3 of 3
  Fluorescence competitive binding assay, OBP2 (raw fluorescence reading): 14391
[1]; ligand concentration 14 (unit not given), replicate column 1 of 3
  Fluorescence competitive binding assay, OBP2 (raw fluorescence reading): 14286
[1]; ligand concentration 14 (unit not given), replicate column 2 of 3
  Fluorescence competitive binding assay, OBP2 (raw fluorescence reading): 13952
[1]; ligand concentration 14 (unit not given), replicate column 3 of 3
  Fluorescence competitive binding assay, OBP2 (raw fluorescence reading): 14683
[1]; ligand concentration 16 (unit not given), replicate column 1 of 3
  Fluorescence competitive binding assay, OBP2 (raw fluorescence reading): 13014
[1]; ligand concentration 16 (unit not given), replicate column 2 of 3
  Fluorescence competitive binding assay, OBP2 (raw fluorescence reading): 12749
[1]; ligand concentration 16 (unit not given), replicate column 3 of 3
  Fluorescence competitive binding assay, OBP2 (raw fluorescence reading): 13096
[1]; ligand concentration 18 (unit not given), replicate column 1 of 3
  Fluorescence competitive binding assay, OBP2 (raw fluorescence reading): 12746
[1]; ligand concentration 18 (unit not given), replicate column 2 of 3
  Fluorescence competitive binding assay, OBP2 (raw fluorescence reading): 12759
[1]; ligand concentration 18 (unit not given), replicate column 3 of 3
  Fluorescence competitive binding assay, OBP2 (raw fluorescence reading): 12788
[1]; ligand concentration 20 (unit not given), replicate column 1 of 3
  Fluorescence competitive binding assay, OBP2 (raw fluorescence reading): 13087
[1]; ligand concentration 20 (unit not given), replicate column 2 of 3
  Fluorescence competitive binding assay, OBP2 (raw fluorescence reading): 12766
[1]; ligand concentration 20 (unit not given), replicate column 3 of 3
  Fluorescence competitive binding assay, OBP2 (raw fluorescence reading): 13106
[2]; ligand concentration 2
  Fluorescence competitive binding assay, fluorescence intensity: 67563 and 64113 and 67485
[2]; ligand concentration 4
  Fluorescence competitive binding assay, fluorescence intensity: 70812 and 72838 and 74184
[2]; ligand concentration 6
  Fluorescence competitive binding assay, fluorescence intensity: 65634 and 64114 and 68940
[2]; ligand concentration 8
  Fluorescence competitive binding assay, fluorescence intensity: 62878 and 67093 and 68072
[2]; ligand concentration 10
  Fluorescence competitive binding assay, fluorescence intensity: 60134 and 69541 and 65795
[2]; ligand concentration 12
  Fluorescence competitive binding assay, fluorescence intensity: 68479 and 64625 and 78735
[2]; ligand concentration 14
  Fluorescence competitive binding assay, fluorescence intensity: 60140 and 40039 and 67409
[2]; ligand concentration 16
  Fluorescence competitive binding assay, fluorescence intensity: 38861 and 39269 and 45097
[2]; ligand concentration 18
  Fluorescence competitive binding assay, fluorescence intensity: 51398 and 59369 and 52474
[2]; ligand concentration 20
  Fluorescence competitive binding assay, fluorescence intensity: 68555 and 48789 and 43446
[2]; SfurOBP3, protein and 1-NPN both 2.0 µM, competitor 2-20 µM, read-out: IC50
  IC50: > 20 µM
[3]; SfurOBP11, protein and 1-NPN both 2.0 µM, competitor 2-20 µM, read-out: IC50
  IC50: > 20 µM
[3]; ligand concentration 2, replicate 1
  Fluorescence intensity, fluorescence competitive binding assay, OBP11: 24217
[3]; ligand concentration 2, replicate 2
  Fluorescence intensity, fluorescence competitive binding assay, OBP11: 24290
[3]; ligand concentration 2, replicate 3
  Fluorescence intensity, fluorescence competitive binding assay, OBP11: 24783
[3]; ligand concentration 4, replicate 1
  Fluorescence intensity, fluorescence competitive binding assay, OBP11: 24290
[3]; ligand concentration 4, replicate 2
  Fluorescence intensity, fluorescence competitive binding assay, OBP11: 24322
[3]; ligand concentration 4, replicate 3
  Fluorescence intensity, fluorescence competitive binding assay, OBP11: 23442
[3]; ligand concentration 6, replicate 1
  Fluorescence intensity, fluorescence competitive binding assay, OBP11: 24952
[3]; ligand concentration 6, replicate 2
  Fluorescence intensity, fluorescence competitive binding assay, OBP11: 22901
[3]; ligand concentration 6, replicate 3
  Fluorescence intensity, fluorescence competitive binding assay, OBP11: 24534
[3]; ligand concentration 8, replicate 1
  Fluorescence intensity, fluorescence competitive binding assay, OBP11: 24078
[3]; ligand concentration 8, replicate 2
  Fluorescence intensity, fluorescence competitive binding assay, OBP11: 21947
[3]; ligand concentration 8, replicate 3
  Fluorescence intensity, fluorescence competitive binding assay, OBP11: 24599
[3]; ligand concentration 10, replicate 1
  Fluorescence intensity, fluorescence competitive binding assay, OBP11: 22957
[3]; ligand concentration 10, replicate 2
  Fluorescence intensity, fluorescence competitive binding assay, OBP11: 24005
[3]; ligand concentration 10, replicate 3
  Fluorescence intensity, fluorescence competitive binding assay, OBP11: 23087
[3]; ligand concentration 12, replicate 1
  Fluorescence intensity, fluorescence competitive binding assay, OBP11: 20961
[3]; ligand concentration 12, replicate 2
  Fluorescence intensity, fluorescence competitive binding assay, OBP11: 21769
[3]; ligand concentration 12, replicate 3
  Fluorescence intensity, fluorescence competitive binding assay, OBP11: 22579
[3]; ligand concentration 14, replicate 1
  Fluorescence intensity, fluorescence competitive binding assay, OBP11: 19736
[3]; ligand concentration 14, replicate 2
  Fluorescence intensity, fluorescence competitive binding assay, OBP11: 20687
[3]; ligand concentration 14, replicate 3
  Fluorescence intensity, fluorescence competitive binding assay, OBP11: 20422
[3]; ligand concentration 16, replicate 1
  Fluorescence intensity, fluorescence competitive binding assay, OBP11: 16888
[3]; ligand concentration 16, replicate 2
  Fluorescence intensity, fluorescence competitive binding assay, OBP11: 20499
[3]; ligand concentration 16, replicate 3
  Fluorescence intensity, fluorescence competitive binding assay, OBP11: 18999
[3]; ligand concentration 18, replicate 1
  Fluorescence intensity, fluorescence competitive binding assay, OBP11: 18870
[3]; ligand concentration 18, replicate 2
  Fluorescence intensity, fluorescence competitive binding assay, OBP11: 19005
[3]; ligand concentration 18, replicate 3
  Fluorescence intensity, fluorescence competitive binding assay, OBP11: 19199
[3]; ligand concentration 20, replicate 1
  Fluorescence intensity, fluorescence competitive binding assay, OBP11: 20952
[3]; ligand concentration 20, replicate 2
  Fluorescence intensity, fluorescence competitive binding assay, OBP11: 19127
[3]; ligand concentration 20, replicate 3
  Fluorescence intensity, fluorescence competitive binding assay, OBP11: 18042
[4]; ligand concentration 2 (μM)
  Fluorescence competitive binding assay, fluorescence intensity: 7624 and 6465 and 8545
[4]; ligand concentration 4 (μM)
  Fluorescence competitive binding assay, fluorescence intensity: 7313 and 7318 and 7353
[4]; ligand concentration 6 (μM)
  Fluorescence competitive binding assay, fluorescence intensity: 7143 and 7275 and 7922
[4]; ligand concentration 8 (μM)
  Fluorescence competitive binding assay, fluorescence intensity: 7358 and 7784 and 8873
[4]; ligand concentration 10 (μM)
  Fluorescence competitive binding assay, fluorescence intensity: 7141 and 7560 and 7926
[4]; ligand concentration 12 (μM)
  Fluorescence competitive binding assay, fluorescence intensity: 7810 and 7463 and 8566
[4]; ligand concentration 14 (μM)
  Fluorescence competitive binding assay, fluorescence intensity: 7736 and 8413 and 7236
[4]; ligand concentration 16 (μM)
  Fluorescence competitive binding assay, fluorescence intensity: 8777 and 6935 and 7055
[4]; ligand concentration 18 (μM)
  Fluorescence competitive binding assay, fluorescence intensity: 9193 and 9578 and 9152
[4]; ligand concentration 20 (μM)
  Fluorescence competitive binding assay, fluorescence intensity: 11048 and 9816 and 8594
[4]; SfurOBP1, protein and 1-NPN both 2.0 µM, competitor 2-20 µM, read-out: IC50
  IC50: > 20 µM
